Laboratory results reported in US12582617B2, “Methods for treating cancer” (RADIUS PHARMACEUTICALS, INC., priority 2015, dated 2026).
Structures can show the parent of a compound that is named as a salt.

Assay: Phase 1 dose escalation study: safety, treatment related AEs
Assay type: in vivo
Procedure: The subjects were 40-75 years old with BMI of 18.0-30 kg/m^2. Subjects having evidence of clinically relevant pathology, increased risk of stroke or of history venous thromboembolic events, or use of concomitant medication less than 14 days prior to admission to clinical research center (paracetamol allowed up to 3 days prior) were excluded.
The subjects were treated with placebo or at least one dose p.o., q.d. after a light breakfast for 7 days at dose levels of 200 mg, 500 mg, 750 mg and 1000 mg, respectively.

CCNCCc1ccc(CN(CC)c2cc(OC)ccc2[C@@H]2CCc3cc(O)ccc3C2)cc1 [RAD1901, (6R)-6-(2-(N-(4-(2-(ethylamino)ethyl)benzyl)-N-ethylamino)-4-methoxyphenyl)-5,6,7,8-tetrahydronaphthalen-2-ol dihydrochloride]
Abdominal discomfort (treatment related AE) (200 mg, Gr1): 3 n(%) | Abdominal distension (treatment related AE) (200 mg, Gr1): 1 n(%) | Abdominal pain (treatment related AE) (200 mg, Gr1): 2 n(%) | Diarrhoea (treatment related AE) (200 mg, Gr1): 0 n(%) | Dizziness (treatment related AE) (200 mg, Gr1): 1 n(%) | Dyspepsia (treatment related AE) (200 mg, Gr1): 3 n(%) | Dysphagia (treatment related AE) (200 mg, Gr1): 0 n(%) | Flatulance (treatment related AE) (200 mg, Gr1): 2 n(%) | Headache (treatment related AE) (200 mg, Gr1): 3 n(%) | Hiccups (treatment related AE) (200 mg, Gr1): 1 n(%) | Hot flush (treatment related AE) (200 mg, Gr1): 2 n(%) | Myalgia (treatment related AE) (200 mg, Gr1): 2 n(%) | Nausea (treatment related AE) (200 mg, Gr1): 5 n(%) | Odynophagia (treatment related AE) (200 mg, Gr1): 2 n(%) | Oesophageal pain (treatment related AE) (200 mg, Gr1): 0 n(%) | Salivary hypersecretion (treatment related AE) (200 mg, Gr1): 2 n(%) | Sensation of a foreign body (treatment related AE) (200 mg, Gr1): 2 n(%) | Vomiting (treatment related AE) (200 mg, Gr1): 2 n(%) | Abdominal discomfort (treatment related AE) (200 mg, Gr2): 0 n(%) | Abdominal distension (treatment related AE) (200 mg, Gr2): 1 n(%) | Abdominal pain (treatment related AE) (200 mg, Gr2): 2 n(%) | Diarrhoea (treatment related AE) (200 mg, Gr2): 0 n(%) | Dizziness (treatment related AE) (200 mg, Gr2): 0 n(%) | Dyspepsia (treatment related AE) (200 mg, Gr2): 0 n(%) | Dysphagia (treatment related AE) (200 mg, Gr2): 0 n(%) | Flatulance (treatment related AE) (200 mg, Gr2): 0 n(%) | Headache (treatment related AE) (200 mg, Gr2): 0 n(%) | Hiccups (treatment related AE) (200 mg, Gr2): 0 n(%) | Hot flush (treatment related AE) (200 mg, Gr2): 0 n(%) | Myalgia (treatment related AE) (200 mg, Gr2): 1 n(%) | Nausea (treatment related AE) (200 mg, Gr2): 0 n(%) | Odynophagia (treatment related AE) (200 mg, Gr2): 0 n(%) | Oesophageal pain (treatment related AE) (200 mg, Gr2): 2 n(%) | Salivary hypersecretion (treatment related AE) (200 mg, Gr2): 0 n(%) | Sensation of a foreign body (treatment related AE) (200 mg, Gr2): 0 n(%) | Vomiting (treatment related AE) (200 mg, Gr2): 0 n(%) | Abdominal discomfort (treatment related AE) (200 mg, Gr3): 0 n(%) | Abdominal distension (treatment related AE) (200 mg, Gr3): 0 n(%) | Abdominal pain (treatment related AE) (200 mg, Gr3): 0 n(%) | Diarrhoea (treatment related AE) (200 mg, Gr3): 0 n(%) | Dizziness (treatment related AE) (200 mg, Gr3): 0 n(%) | Dyspepsia (treatment related AE) (200 mg, Gr3): 0 n(%) | Dysphagia (treatment related AE) (200 mg, Gr3): 0 n(%) | Flatulance (treatment related AE) (200 mg, Gr3): 0 n(%) | Headache (treatment related AE) (200 mg, Gr3): 0 n(%) | Hiccups (treatment related AE) (200 mg, Gr3): 0 n(%) | Hot flush (treatment related AE) (200 mg, Gr3): 0 n(%) | Myalgia (treatment related AE) (200 mg, Gr3): 0 n(%) | Nausea (treatment related AE) (200 mg, Gr3): 0 n(%) | Odynophagia (treatment related AE) (200 mg, Gr3): 0 n(%) | Oesophageal pain (treatment related AE) (200 mg, Gr3): 0 n(%) | Salivary hypersecretion (treatment related AE) (200 mg, Gr3): 0 n(%) | Sensation of a foreign body (treatment related AE) (200 mg, Gr3): 0 n(%) | Vomiting (treatment related AE) (200 mg, Gr3): 0 n(%) | Abdominal discomfort (treatment related AE) (500 mg, Gr1): 0 n(%) | Abdominal distension (treatment related AE) (500 mg, Gr1): 1 (7) n(%) | Abdominal pain (treatment related AE) (500 mg, Gr1): 3 (21) n(%) | Diarrhoea (treatment related AE) (500 mg, Gr1): 3 (21) n(%) | Dizziness (treatment related AE) (500 mg, Gr1): 2 (14) n(%) | Dyspepsia (treatment related AE) (500 mg, Gr1): 5 (36) n(%) | Dysphagia (treatment related AE) (500 mg, Gr1): 1 (7) n(%) | Flatulance (treatment related AE) (500 mg, Gr1): 2 (14) n(%) | Headache (treatment related AE) (500 mg, Gr1): 1 (7) n(%) | Hiccups (treatment related AE) (500 mg, Gr1): 4 (29) n(%) | Hot flush (treatment related AE) (500 mg, Gr1): 6 (43) n(%) | Myalgia (treatment related AE) (500 mg, Gr1): 0 n(%) | Nausea (treatment related AE) (500 mg, Gr1): 3 (21) n(%) | Odynophagia (treatment related AE) (500 mg, Gr1): 1 (7) n(%) | Oesophageal pain (treatment related AE) (500 mg, Gr1): 1 (7) n(%) | Salivary hypersecretion (treatment related AE) (500 mg, Gr1): 2 (14) n(%) | Sensation of a foreign body (treatment related AE) (500 mg, Gr1): 1 (7) n(%) | Vomiting (treatment related AE) (500 mg, Gr1): 1 (7) n(%) | Abdominal discomfort (treatment related AE) (500 mg, Gr2): 0 n(%) | Abdominal distension (treatment related AE) (500 mg, Gr2): 0 n(%) | Abdominal pain (treatment related AE) (500 mg, Gr2): 0 n(%) | Diarrhoea (treatment related AE) (500 mg, Gr2): 0 n(%) | Dizziness (treatment related AE) (500 mg, Gr2): 0 n(%) | Dyspepsia (treatment related AE) (500 mg, Gr2): 2 n(%) | Dysphagia (treatment related AE) (500 mg, Gr2): 2 n(%) | Flatulance (treatment related AE) (500 mg, Gr2): 0 n(%) | Headache (treatment related AE) (500 mg, Gr2): 1 n(%) | Hiccups (treatment related AE) (500 mg, Gr2): 0 n(%) | Hot flush (treatment related AE) (500 mg, Gr2): 0 n(%) | Myalgia (treatment related AE) (500 mg, Gr2): 1 n(%) | Nausea (treatment related AE) (500 mg, Gr2): 2 n(%) | Odynophagia (treatment related AE) (500 mg, Gr2): 1 n(%) | Oesophageal pain (treatment related AE) (500 mg, Gr2): 3 n(%) | Salivary hypersecretion (treatment related AE) (500 mg, Gr2): 0 n(%) | Sensation of a foreign body (treatment related AE) (500 mg, Gr2): 0 n(%) | Vomiting (treatment related AE) (500 mg, Gr2): 5 n(%) | Abdominal discomfort (treatment related AE) (500 mg, Gr3): 0 n(%) | Abdominal distension (treatment related AE) (500 mg, Gr3): 0 n(%) | Abdominal pain (treatment related AE) (500 mg, Gr3): 0 n(%) | Diarrhoea (treatment related AE) (500 mg, Gr3): 0 n(%) | Dizziness (treatment related AE) (500 mg, Gr3): 0 n(%) | Dyspepsia (treatment related AE) (500 mg, Gr3): 0 n(%) | Dysphagia (treatment related AE) (500 mg, Gr3): 0 n(%) | Flatulance (treatment related AE) (500 mg, Gr3): 0 n(%) | Headache (treatment related AE) (500 mg, Gr3): 0 n(%) | Hiccups (treatment related AE) (500 mg, Gr3): 0 n(%) | Hot flush (treatment related AE) (500 mg, Gr3): 0 n(%) | Myalgia (treatment related AE) (500 mg, Gr3): 0 n(%) | Nausea (treatment related AE) (500 mg, Gr3): 0 n(%) | Odynophagia (treatment related AE) (500 mg, Gr3): 0 n(%) | Oesophageal pain (treatment related AE) (500 mg, Gr3): 0 n(%) | Salivary hypersecretion (treatment related AE) (500 mg, Gr3): 0 n(%) | Sensation of a foreign body (treatment related AE) (500 mg, Gr3): 0 n(%) | Vomiting (treatment related AE) (500 mg, Gr3): 1 n(%) | Abdominal discomfort (treatment related AE) (750 mg, Gr1): 1 (13) n(%) | Abdominal distension (treatment related AE) (750 mg, Gr1): 1 (13) n(%) | Abdominal pain (treatment related AE) (750 mg, Gr1): 1 (13) n(%) | Diarrhoea (treatment related AE) (750 mg, Gr1): 0 n(%) | Dizziness (treatment related AE) (750 mg, Gr1): 1 (13) n(%) | Dyspepsia (treatment related AE) (750 mg, Gr1): 4 (50) n(%) | Dysphagia (treatment related AE) (750 mg, Gr1): 3 (38) n(%) | Flatulance (treatment related AE) (750 mg, Gr1): 1 (13) n(%) | Headache (treatment related AE) (750 mg, Gr1): 3 (38) n(%) | Hiccups (treatment related AE) (750 mg, Gr1): 2 (25) n(%) | Hot flush (treatment related AE) (750 mg, Gr1): 2 (25) n(%) | Myalgia (treatment related AE) (750 mg, Gr1): 1 (13) n(%) | Nausea (treatment related AE) (750 mg, Gr1): 2 (25) n(%) | Odynophagia (treatment related AE) (750 mg, Gr1): 0 n(%) | Oesophageal pain (treatment related AE) (750 mg, Gr1): 1 (13) n(%) | Salivary hypersecretion (treatment related AE) (750 mg, Gr1): 2 (25) n(%) | Sensation of a foreign body (treatment related AE) (750 mg, Gr1): 0 n(%) | Vomiting (treatment related AE) (750 mg, Gr1): 0 n(%) | Abdominal discomfort (treatment related AE) (750 mg, Gr2): 1 n(%) | Abdominal distension (treatment related AE) (750 mg, Gr2): 0 n(%) | Abdominal pain (treatment related AE) (750 mg, Gr2): 0 n(%) | Diarrhoea (treatment related AE) (750 mg, Gr2): 0 n(%) | Dizziness (treatment related AE) (750 mg, Gr2): 0 n(%) | Dyspepsia (treatment related AE) (750 mg, Gr2): 0 n(%) | Dysphagia (treatment related AE) (750 mg, Gr2): 1 n(%) | Flatulance (treatment related AE) (750 mg, Gr2): 0 n(%) | Headache (treatment related AE) (750 mg, Gr2): 0 n(%) | Hiccups (treatment related AE) (750 mg, Gr2): 0 n(%) | Hot flush (treatment related AE) (750 mg, Gr2): 0 n(%) | Myalgia (treatment related AE) (750 mg, Gr2): 0 n(%) | Nausea (treatment related AE) (750 mg, Gr2): 1 n(%) | Odynophagia (treatment related AE) (750 mg, Gr2): 0 n(%) | Oesophageal pain (treatment related AE) (750 mg, Gr2): 0 n(%) | Salivary hypersecretion (treatment related AE) (750 mg, Gr2): 0 n(%) | Sensation of a foreign body (treatment related AE) (750 mg, Gr2): 0 n(%) | Vomiting (treatment related AE) (750 mg, Gr2): 2 n(%) | Abdominal discomfort (treatment related AE) (750 mg, Gr3): 0 n(%)
